In US20050197338A1, “Substituted pyrazole urea compounds for the treatment of inflammation” (priority 2003, published 2005):

Target: T1, human IKK-2 (rhIKK-2 homodimer) (Homo sapiens, UniProt O14920)
T1 construct: FLAG (DYKDDDDKD) (C); made in house; host or cells: insect cells (baculovirus, pFastBac)
T1 sequence (O14920 1-756): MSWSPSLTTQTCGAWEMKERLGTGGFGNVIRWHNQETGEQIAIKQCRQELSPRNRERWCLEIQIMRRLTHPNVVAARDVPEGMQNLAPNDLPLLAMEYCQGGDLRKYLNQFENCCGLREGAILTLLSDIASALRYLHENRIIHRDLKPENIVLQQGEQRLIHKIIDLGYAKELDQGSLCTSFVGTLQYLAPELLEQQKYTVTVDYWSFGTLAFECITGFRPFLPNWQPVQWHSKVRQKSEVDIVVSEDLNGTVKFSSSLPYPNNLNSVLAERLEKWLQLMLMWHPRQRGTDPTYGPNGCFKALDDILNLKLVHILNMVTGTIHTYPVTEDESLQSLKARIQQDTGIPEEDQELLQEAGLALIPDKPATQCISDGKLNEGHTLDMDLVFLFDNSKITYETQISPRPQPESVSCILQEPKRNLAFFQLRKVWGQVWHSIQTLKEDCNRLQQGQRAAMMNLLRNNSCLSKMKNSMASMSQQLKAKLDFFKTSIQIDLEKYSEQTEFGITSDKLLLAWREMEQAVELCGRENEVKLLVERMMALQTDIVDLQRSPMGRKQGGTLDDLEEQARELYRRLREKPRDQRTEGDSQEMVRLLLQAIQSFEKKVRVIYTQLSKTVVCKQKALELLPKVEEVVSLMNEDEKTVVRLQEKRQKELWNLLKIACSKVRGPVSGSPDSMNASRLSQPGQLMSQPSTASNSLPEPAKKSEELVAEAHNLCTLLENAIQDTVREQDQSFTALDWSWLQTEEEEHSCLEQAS
Assay: IKK-2 Resin Enzyme Assay (Human IKK-2 Enzyme Assay)
Assay type: biochemical
Conditions: human IKK-2, resin enzyme assay; read-out: IC50 (μM) hIKK-2
Description: Materials: SAM^2™96 Biotin capture plates were from Promega. Anti-FLAG affinity resin, FLAG-peptide, NP-40 (Nonidet P-40), BSA, ATP, ADP, AMP, LPS (E. coli serotype 0111:B4), and dithiothreitol were obtained from Sigma Chemicals. Antibodies specific for NEMO (IKK-γ) (FL-419), IKK-1 (H-744), IKK-2(H-470) and IκBa(C-21) were purchased from Santa Cruz Biotechnology. Ni-NTA resin was purchased from Qiagen. Peptides were purchased from American Peptide Company. Protease inhibitor cocktail tablets were from Boehringer Mannheim. Sephacryl S-300 column was from Pharmacia LKB Biotechnology. Centriprep-10 concentrators with a molecular weight cutoff of 10 kDa and membranes with molecular weight cut-off of 30 kDa were obtained from Amicon. [γ-^33P] ATP (2500 Ci/mmol) and [γ-^32P] ATP (6000 Ci/mmol) were purchased from Amersham. The other reagents used were of the highest grade commercially available.
Cloning and Expression: cDNAs of human IKK-1 and IKK-2 were amplified by reverse transcriptase-polymerase chain reaction from human placental RNA (Clonetech). hlKK-1 was subcloned into pFastBac HTa (Life Technologies) and expressed as N-terminal His6-tagged fusion protein. The hlKK-2 cDNA was amplified using a reverse oligonucleotide primer which incorporated the peptide sequence for a FLAG-epitope tag at the C-terminus of the IKK-2 coding region (DYKDDDDKD). The hlKK-2:FLAG cDNA was subcloned into the baculovirus vector pFastBac. The rhIKK-2 ([…]) mutant was constructed in the same vector used for wild type rhIKK-2 using a QuikChange™ mutagenesis kit (Stratagene). Viral stocks of each construct were used to infect insect cells grown in 40 L suspension culture. […] Cell lysates were stored at −80° C. until purification of the recombinant proteins was undertaken as described below.
Enzyme Isolation: All purification procedures were carried out at 4° C. unless otherwise noted. Buffers used are: buffer A: 20 mM Tris-HCl, pH 7.6, containing 50 mM NaCl, 20 mM NaF, 20 mM β-Glycerophosphate, 500 μM sodium orthovanadate, 2.5 mM metabisulfite, 5 mM benzamidine, 1 mM EDTA, 0.5 mM EGTA, 10% glycerol, 1 mM DTT, 1× Complete™ protease inhibitors; buffer B: same as buffer A, except 150 mM NaCl, and buffer C: same as buffer A, except 500 mM NaCl.
Isolation of rhIKK-2 homodimer: A 10-liter culture of baculovirus-expressing IKK-2 tagged with FLAG peptide was centrifuged and the cell pellet (MOI=0.1 and 1=72 h) was re-suspended in buffer A. These cells were microfluidized, and centrifuged at 100,000×g for 45 min. Supernatant was passed over a G-25 column equilibrated with Buffer A. Protein peak was collected and incubated with anti-FLAG affinity resin on a rotator overnight in buffer B. The resin was washed in batch with 10-15 bed volumes of buffer C. Washed resin was poured into a column and rhIKK-2 homodimer was eluted using 5 bed volumes of buffer B containing FLAG peptide. 5 mM DTT, 0.1% NP-40 and BSA (concentrated to 0.1% in final amount) was added to the eluted enzyme before concentrating in using an Amicon membrane with a molecular weight cut-off of 30 kDa. Enzyme was aliquoted and stored at −80° C.
IKK-2 Resin Enzyme Assay: IKK-2 kinase activity was measured using a biotinylated IκBα peptide (Gly-Leu-Lys-Lys-Glu-Arg-Leu-Leu-Asp-Asp-Arg-His-Asp-Ser32-Gly-Leu-Asp-Ser36-Met-Lys-Asp-Glu-Glu) (American Peptide Co.). 20 μL of the standard reaction mixture contained 5 μM biotinylated IκBα peptide, 0.1 μCi/reaction [γ-^33P] ATP (Amersham) (about 1×10^5 cpm), 1 μM ATP (Sigma), 1 mM DTT (Sigma), 2 mM MgCl2 (Sigma), 2 mM MnCl2 (Sigma), 10 mM NaF (Sigma), 25 mM Hepes (Sigma) buffer, pH 7.6 and 20 μL enzyme solution and 10 μL inhibitor in a final volume of 50 μL. After incubation at 25° C. for 30 min, 150 μL resin (Dowex anion-exchange resin AG1X8 200-400 mesh) in 900 mM formate, pH 3.0 was added to each well to stop the reaction. Resin was allowed to settle for 1 h and 50 μL of supernatant was removed to a Micolite-2 flat bottom plate (Dynex). […]

SMILES	IC50 [µM]
NC(=O)Nc1cn(-c2cccc(-c3ccc4c(c3)OCO4)c2)nc1C(N)=O [Example 62, 4-[(aminocarbonyl)amino]-1-[3-(1,3-benzodioxol-5-yl)phenyl]-1H-pyrazole-3-carboxamide]	7.91
CN1CCOc2cc(-c3cccc(-n4cc(NC(N)=O)c(C(N)=O)n4)c3)ccc21 [Example 64, 4-[(aminocarbonyl)amino]-1-[3-(4-methyl-3,4-dihydro-2H-1,4-benzoxazin-7-yl)phenyl]-1H-pyrazole-3-carboxamide]	6.08
NC(=O)Nc1cn(-c2cccc(-c3ccc4[nH]ccc4c3)c2)nc1C(N)=O [Example 65, 4-[(aminocarbonyl)amino]-1-[3-(1H-indol-5-yl)phenyl]-1H-pyrazole-3-carboxamide]	1.8
NC(=O)Nc1cn(-c2cccc(-c3cncnc3)c2)nc1C(N)=O [Example 66, 4-[(aminocarbonyl)amino]-1-(3-pyrimidin-5-ylphenyl)-1H-pyrazole-3-carboxamide]	5.2
NC(=O)Nc1cn(-c2cccc(/C=C/c3ccccc3)c2)nc1C(N)=O [Example 67, 4-[(aminocarbonyl)amino]-1-{3-[(E)-2-phenylvinyl]phenyl}-1H-pyrazole-3-carboxamide]	5.24
NC(=O)Nc1cn(-c2cccc(-c3ccccc3O)c2)nc1C(N)=O [Example 71, 4-[(aminocarbonyl)amino]-1-(2′-hydroxy-1,1′-biphenyl-3-yl)-1H-pyrazole-3-carboxamide]	2.25
NC(=O)Nc1cn(-c2cccc(-c3cccc(C(=O)O)c3)c2)nc1C(N)=O [Example 73, 3′-{3-(aminocarbonyl)-4-[(aminocarbonyl)amino]-1H-pyrazol-1-yl}-1,1′-biphenyl-3-carboxylic acid]	8.03
NC(=O)Nc1cn(-c2cccc(-c3cccc(C(N)=O)c3)c2)nc1C(N)=O [Example 79, 4-[(aminocarbonyl)amino]-1-[3′-(aminocarbonyl)-1,1′-biphenyl-3-yl]-1H-pyrazole-3-carboxamide]	5.67
NC(=O)Nc1cn(-c2cccc(-c3cccc(C(=O)NC4CC4)c3)c2)nc1C(N)=O [Example 81]	1.65
N#CCCNC(=O)c1cccc(-c2cccc(-n3cc(NC(N)=O)c(C(N)=O)n3)c2)c1 [Example 82, 4-[(aminocarbonyl)amino]-1-(3′-{[(2-cyanoethyl)amino]carbonyl}-1,1′-biphenyl-3-yl)-1H-pyrazole-3-carboxamide]	1.19
CNC(=O)c1cccc(-c2cccc(-n3cc(NC(N)=O)c(C(N)=O)n3)c2)c1 [Example 83, 4-[(aminocarbonyl)amino]-1-{3′-[(methylamino)carbonyl]-1,1′-biphenyl-3-yl}-1H-pyrazole-3-carboxamide]	1.29
N#CCCNC(=O)c1ccc(-c2cccc(-n3cc(NC(N)=O)c(C(N)=O)n3)c2)cc1 [Example 84, 4-[(aminocarbonyl)amino]-1-(4′-{[(2-cyanoethyl)amino]carbonyl}-1,1′-biphenyl-3-yl)-1H-pyrazole-3-carboxamide]	2.06

Compounds with a lower IC50, results first:

IC50 [µM]	SMILES
0.59	Cc1cc(-c2cccc(-n3cc(NC(N)=O)c(C(N)=O)n3)c2)ccn1 [Example 63, 4-[(aminocarbonyl)amino]-1-[3-(2-methylpyridin-4-yl)phenyl]-1H-pyrazole-3-carboxamide]
0.55	NC(=O)Nc1cn(-c2cccc(-c3ccc[nH]3)c2)nc1C(N)=O [Example 68]
0.65	Cc1cnccc1-c1cccc(-n2cc(NC(N)=O)c(C(N)=O)n2)c1 [Example 69, 4-[(aminocarbonyl)amino]-1-[3-(3-methylpyridin-4-yl)phenyl]-1H-pyrazole-3-carboxamide]
0.88	Cc1noc(C)c1-c1cccc(-n2cc(NC(N)=O)c(C(N)=O)n2)c1 [Example 70, 4-[(aminocarbonyl)amino]-1-[3-(3,5-dimethylisoxazol-4-yl)phenyl]-1H-pyrazole-3-carboxamide]
0.44	NC(=O)Nc1cn(-c2cccc(-c3cccc(O)c3)c2)nc1C(N)=O [Example 72, 4-[(aminocarbonyl)amino]-1-(3′-hydroxy-1,1′-biphenyl-3-yl)-1H-pyrazole-3-carboxamide]
0.94	CNC(=O)c1ccc(-c2cccc(-n3cc(NC(N)=O)c(C(N)=O)n3)c2)cc1 [Example 74, 4-[(aminocarbonyl)amino]-1-{4′-[(methylamino)carbonyl]-1,1′-biphenyl-3-yl}-1H-pyrazole-3-carboxamide]
0.48	CCCNC(=O)c1ccc(-c2cccc(-n3cc(NC(N)=O)c(C(N)=O)n3)c2)cc1 [Example 75, 4-[(aminocarbonyl)amino]-1-{4′-[(propylamino)carbonyl]-1,1′-biphenyl-3-yl}-1H-pyrazole-3-carboxamide]
0.9	CC(=O)Nc1cccc(-c2cccc(-n3cc(NC(N)=O)c(C(N)=O)n3)c2)c1 [Example 76, 1-[3′-(acetylamino)-1,1′-biphenyl-3-yl]-4-[(aminocarbonyl)amino]-1H-pyrazole-3-carboxamide]
0.8	Cc1ccc(-c2cccc(-n3cc(NC(N)=O)c(C(N)=O)n3)c2)cc1N [Example 77, 4-[(aminocarbonyl)amino]-1-(3′-amino-4′-methyl-1,1′-biphenyl-3-yl)-1H-pyrazole-3-carboxamide]
0.81	NCc1cccc(-c2cccc(-n3cc(NC(N)=O)c(C(N)=O)n3)c2)c1 [Example 78, 4-[(aminocarbonyl)amino]-1-[3′-(aminomethyl)-1,1′-biphenyl-3-yl]-1H-pyrazole-3-carboxamide]
0.6	NC(=O)Nc1cn(-c2cccc(-c3ccc(C(=O)NC4CC4)cc3)c2)nc1C(N)=O [Example 80, 4-[(aminocarbonyl)amino]-1-{4′-[(cyclopropylamino)carbonyl]-1,1′-biphenyl-3-yl}-1H-pyrazole-3-carboxamide]
0.58	NC(=O)Nc1cn(-c2cccc(-c3ccc(C(=O)NCC(=O)O)cc3)c2)nc1C(N)=O [Example 85, N-[(3′-{3-(aminocarbonyl)-4-[(aminocarbonyl)amino]-1H-pyrazol-1-yl}-1,1′-biphenyl-4-yl)carbonyl]glycine]
